# In patent publication US10377741B2, “Substituted heteroaryl aldehyde compounds and methods for their use in increasing tissue oxygenation” (Global Blood Therapeutics, Inc., priority 2011, dated 2019):
# Key:
# [1] = molecular target: T1, purified Hemoglobin S (HbS) (Homo sapiens, UniProt P68871+P69905, E7V); experiment: Modulation of hemoglobin oxygen affinity: oxygen equilibrium curves (HEMOX) in purified HbS; format: biochemical, human (homozygous sickle cell patients); details: compound at 30 μM; 25 μM purified HbS, 45 min at 37° C.
# T1 construct: HbS was purified by a modified procedure; from tissue; host or cells: blood of homozygous sickle cell patients (CHORI); for the polymerization assay purified by the CRO VIRUSYS
# Outline: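 HbS from homozygous sickle cell patient blood, 25 μM in HEMOX buffer pH 7.4, incubated 45 min at 37° C with compound (30 μM unless noted). Air-saturated then deoxygenated with N2; p50 from Hill fit; delta p50% = (control p50 − treated p50)/control p50 × 100.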
# purified HBS = molecular target: T2, purified HBS (Homo sapiens, UniProt P68871+P69905, E7V); experiment: Polymerization assay (delay time of HbS polymerization); format: biochemical, human (homozygous sickle cell patients); details: percent delay (% DT) vs HBS alone; 50 μM purified HBS, 1.8 M potassium phosphate pH 7.4
# T2 construct: HbS was purified by a modified procedure; from tissue; host or cells: blood of homozygous sickle cell patients (CHORI); for the polymerization assay purified by the CRO VIRUSYS
# Method: Polymerization assays are carried out in vitro using purified HBS exchanged into 1.8 M potassium phosphate buffer at pH 7.4. Using a slightly modified protocol (Antonini and Brunori, 1971), HbS is purified by the CRO VIRUSYS, from blood obtained from homozygous sickle cell patients through the Hemoglobinopathy Center at Children's Hospital Oakland Research Institute (CHORI) with Institutional Review Board approval. Compounds are prepared in 100% DMSO and a desired amount is added to 50 μM of purified HBS at a final DMSO concentration of 0.3%. Final potassium phosphate concentration is adjusted to 1.8 M using a combination of 2.5 M potassium phosphate stock solution and water at pH 7.4. The reaction mixture is incubated for an hour at 37° C. and then transferred into a 24-well plate for deoxygenation in a glove box containing 99.5% nitrogen and 0.5% oxygen. The 24-well plate is not covered and incubated at 4° C. on a plate cooler inside the glove box for one and a half hours. Fifty μL of the reaction mixture is transferred into a 96-well plate and the absorbance at 700 nm is measured every minute for one hour at 37° C. in a plate reader located inside the glove box. A plot of the absorbance against time is fitted using a Boltzman sigmoidal fit and the delay time (from zero to time at half Vmax) is measured. To compare and rank compounds, delay times are expressed as percent delay (% DT), which is defined as the difference in delay times for HBS/compound and HBS alone multiplied by 100 and divided by the delay time for HBS alone.
# Compounds listed below have been tested in the polymerization assay. Activity ranges are defined by the number of dagger (†) symbols indicated. † denotes activity ≥40% but ≤80%; †† denotes activity >80% but ≤120%; ††† denotes activity >120% but ≤140%; †††† denotes activity >160%.
# HbS/A = molecular target: T3, HbS/A (Homo sapiens, UniProt P68871+P69905, E7V); experiment: R/T assay (relaxed-to-tense transition under deoxygenated conditions); format: biochemical, human (homozygous sickle cell patients); details: 3 μM HbS/A, % R remaining vs no treatment
# T3 construct: A mixture of HbS/A was purified from blood; from tissue; host or cells: blood of homozygous sickle cell patients (CHORI)
# Outline: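 Purified HbS/A (3 μM final) incubated 1 hr at 37° C with compounds (3 μM to 100 μM) in potassium phosphate buffer pH 7.4 with 30 μM DPG, then deoxygenated under N2 with 300–700 nm spectra every 5 min for 2 hours. Delta R is % R state retained versus untreated, by linear regression over all wavelengths.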
# whole blood = experiment: Whole blood assay: oxygen equilibrium curves of whole blood; format: cell-based, human (homozygous sickle cell patients); details: compound at 1000 μM; hematocrit 20%, 1 hour at 37° C.
# Method: Oxygen Equilibrium Curves (OEC) of whole blood before and after treatment with different concentrations of substituted benzaldehyde compounds were performed as follows using a HEMOX analyzer (TCS Scientific, New Hope, Pa.). Blood samples from homozygous sickle cell patients were obtained though the Hemoglobinopathy Center at Children's Hospital Oakland Research Institute (CHORI) with Institutional Review Board approval. The hematocrit was adjusted to 20% using autologous plasma and the blood samples were incubated for 1 hour at 37° C. in absence or presence of compounds. 100 μl of these samples were added to 5 mL of Hemox buffer (30 mM TES, 130 mM NaCl, 5 mM KCl, pH=7.4) at 37° C. and then transferred to the Hemox sample chamber. The samples were saturated with oxygen by flushing with compressed air for 10 minutes. The samples were then flushed with pure nitrogen and the respective absorbances of oxy- and deoxy-Hb are recorded as a function of the solution pO2. The oxygen equilibrium data were then fitted to the Hill Model to obtain values for p50. The deoxygenation curves for both whole blood alone (control) and whole blood in the presence of the compound were collected with the TCS software.
# Table 5 below lists the delta p50% values where + indicates a delta p50% of between 0 and 29, ++ indicates a delta p50% of between 30 and 50, and +++ indicates a delta p50% of 50 or greater. Unless noted otherwise, the compounds in Table 2 were tested at 1000 μM.
Structure (SMILES),delta p50% [1],% delta Delay (purified HBS),delta R (HbS/A; compound at 30 μM),delta R (HbS/A; compound at 9 μM),delta p50% Values for Whole Blood Assay (whole blood)
"COc1cc(C=O)c(OCc2nccnc2-c2ccnn2C(C)C)cn1 [Compound 181, 5-((3-(1-isopropyl-1H-pyrazol-5-yl)pyrazin-2-yl)methoxy)-2-methoxyisonicotinaldehyde]",+++ (a delta p50% of 50 or greater),††† (activity >120% but ≤140%),,+ (a delta R of between 0 and 30),+++ (a delta p50% of 50 or greater)
"O=Cc1ccncc1OCc1cccc(C(=O)O)c1 [Compound 169, 3-(((4-formylpyridin-3-yl)oxy)methyl)benzoic acid]",++ (a delta p50% of between 30 and 50),††† (activity >120% but ≤140%),,++ (a delta R of between 30 and 50),++ (a delta p50% of between 30 and 50)
"CC(C)n1nccc1-c1ncccc1COc1cnc(OC(F)F)cc1C=O [Compound 178, 2-(difluoromethoxy)-5-((2-(1-isopropyl-1H-pyrazol-5-yl)pyridin-3-yl)methoxy)isonicotinaldehyde]",++ (a delta p50% of between 30 and 50),† (activity ≥40% but ≤80%),,+ (a delta R of between 0 and 30),++ (a delta p50% of between 30 and 50)
COC(=O)c1ccc(COc2cccnc2C=O)cc1 [Compound 164],++ (a delta p50% of between 30 and 50),††† (activity >120% but ≤140%),,++ (a delta R of between 30 and 50),++ (a delta p50% of between 30 and 50)
COc1cc(C=O)c(OCc2cccn3ccnc23)cn1 [Compound 5],++ (a delta p50% of between 30 and 50),† (activity ≥40% but ≤80%),++ (a delta R of between 30 and 50),,+ (a delta p50% of between 0 and 29)
"Cc1ccc(OCc2ccc(C(=O)O)cc2)c(C=O)n1 [Compound 165, 4-(((2-formyl-6-methylpyridin-3-yl)oxy)methyl)benzoic acid]",++ (a delta p50% of between 30 and 50),††† (activity >120% but ≤140%),,+ (a delta R of between 0 and 30),+ (a delta p50% of between 0 and 29)
"COCCOc1cc(C=O)c(OCc2cccnc2-c2ccnn2C(C)C)cn1 [Compound 180, 5-((2-(1-isopropyl-1H-pyrazol-5-yl)pyridin-3-yl)methoxy)-2-(2-methoxyethoxy)isonicotinaldehyde]",+++ (a delta p50% of 50 or greater),† (activity ≥40% but ≤80%),++ (a delta R of between 30 and 50),,+++ (a delta p50% of 50 or greater)
"COc1cc(C=O)c(OCc2cccnc2-c2ccnn2C2CCCC2)cn1 [Compound 198, 5-((2-(1-cyclopentyl-1H-pyrazol-5-yl)pyridin-3-yl)methoxy)-2-methoxyisonicotinaldehyde]",+++ (a delta p50% of 50 or greater),† (activity ≥40% but ≤80%),++ (a delta R of between 30 and 50),,+++ (a delta p50% of 50 or greater)
"COc1cc(C=O)c(OCc2cccnc2-c2ccnn2C2CCC2)cn1 [Compound 195, 5-((2-(1-cyclobutyl-1H-pyrazol-5-yl)pyridin-3-yl)methoxy)-2-methoxyisonicotinaldehyde]",+++ (a delta p50% of 50 or greater),††† (activity >120% but ≤140%),+++ (a delta R of 50 or greater),,+++ (a delta p50% of 50 or greater)
"COc1cc(C=O)c(OCc2ccncc2-c2ccnn2C(C)C)cn1 [Compound 160, 5-((3-(1-isopropyl-1H-pyrazol-5-yl)pyridin-4-yl)methoxy)-2-methoxyisonicotinaldehyde]",+++ (a delta p50% of 50 or greater),†† (activity >80% but ≤120%),+ (a delta R of between 0 and 30),,+++ (a delta p50% of 50 or greater)

# The next lines start with results.
delta p50% [1],% delta Delay (purified HBS),delta R (HbS/A; compound at 30 μM),delta R (HbS/A; compound at 9 μM),Structure (SMILES),delta p50% Values for Whole Blood Assay (whole blood)
+++ (a delta p50% of 50 or greater),†† (activity >80% but ≤120%),++ (a delta R of between 30 and 50),,"COc1cc(C=O)c(OCc2cccnc2-c2cccnc2OC)cn1 [Compound 163, 2-methoxy-5-((2′-methoxy-[2,3′-bipyridin]-3-yl)methoxy)isonicotinaldehyde]",+++ (a delta p50% of 50 or greater)
+++ (a delta p50% of 50 or greater),††† (activity >120% but ≤140%),+++ (a delta R of 50 or greater),,COc1cc(C=O)c(OCc2cccnc2-c2ccnn2C(C)C)cn1 [Compound 150],+++ (a delta p50% of 50 or greater)
+++ (a delta p50% of 50 or greater),†† (activity >80% but ≤120%),+++ (a delta R of 50 or greater),,"COc1cc(C=O)c(OCc2cccnc2-c2ccccc2C)cn1 [Compound 162, 2-methoxy-5-((2-(o-tolyl)pyridin-3-yl)methoxy)isonicotinaldehyde]",+++ (a delta p50% of 50 or greater)
+++ (a delta p50% of 50 or greater),† (activity ≥40% but ≤80%),+++ (a delta R of 50 or greater),,"CCCn1nccc1-c1ncccc1COc1cnc(OC)cc1C=O [Compound 173, 2-methoxy-5-((2-(1-propyl-1H-pyrazol-5-yl)pyridin-3-yl)methoxy)isonicotinaldehyde]",+++ (a delta p50% of 50 or greater)
+++ (a delta p50% of 50 or greater),†† (activity >80% but ≤120%),++ (a delta R of between 30 and 50),,"COc1cc(C=O)c(OCc2cccnc2-c2ccccc2)cn1 [Compound 159, 2-methoxy-5-((2-phenylpyridin-3-yl)methoxy) isonicotinaldehyde]",+++ (a delta p50% of 50 or greater)
++ (a delta p50% of between 30 and 50),† (activity ≥40% but ≤80%),,+ (a delta R of between 0 and 30),"COc1cc(C=O)c(OCc2cccnc2-c2ccn(C)n2)cn1 [Compound 130, 2-methoxy-5-((2-(1-methyl-1H-pyrazol-3-yl)pyridin-3-yl)methoxy)isonicotinaldehyde]",++ (a delta p50% of between 30 and 50)
